Measured values reported in publication PMC10022191, “Safety, tolerability, pharmacokinetics, and antiviral activity of the novel core protein allosteric modulator ZM-H1505R (Canocapavir) in chronic hepatitis B patients: a randomized multiple-dose escalation trial” (BMC Medicine, 2023).
“Also recorded” adds a separate entry of the source.

System: HBV
Test: phase 1b trial: antiviral activity (serum HBV markers) in CHB patients
Type: in vivo, Hepatitis B virus
[1] = 100 mg q.d., single patient with ALT flare

Protocol: The changes in the serum levels of HBV DNA, HBV pgRNA, HBcrAg, HBsAg, HBsAb, HBeAg, HBeAb, and HBcAb at different time points were examined. Blood samples were collected on the initial screening day (baseline) and days 1, 8, 15, 22, 29, 43 ± 1, and 57 ± 2 postdosing.
The HBV DNA level was measured using a COBAS TaqMan kit (Roche Diagnostics, Pleasanton, CA, USA), according to the manufacturer’s instructions. The lowest detectable level using this kit was 20 IU/mL. The serum levels of HBeAg and HBsAg were quantitatively assessed by a chemiluminescence method using Abbott Architect assays (Abbott Diagnostics; Abbott Park, IL, USA). The lowest detectable level of the kit for HBeAg and HBsAg were 1 and 0.05 IU/mL, respectively.

Q: `O=C1CO[C@H](c2cn(-c3ccc(Br)cc3)nc2-c2ccc(F)cc2)N1CCc1ccc2[nH]c(=O)[nH]c2c1` [Canocapavir] was tested. Which “patients with HBV DNA reduced below the lower limit of quantification” value (50 mg q.d.) did it give?
A: The value was 0 number of patients (percentage.

Q: What about the “patients with HBV pgRNA reduced below the lower limit of quantification (~ 2 log10 copies/mL)” value (50 mg q.d.) of the same molecule?
A: The value was 1 (12.5%) number of patients (percentage.

Q: And the “maximum mean HBcrAg decrease” value (50 mg q.d., 28 days)?
A: Its value is -0.30 log10 kU/mL.

Q: And the “mean maximum HBV DNA decline from baseline” value (shortened to “mean maximum HBV DNA decline”) (50 mg q.d., 28 days)?
A: The value was -1.54 log10 IU/mL.

Q: And the “mean maximum HBV pgRNA decline from baseline” value (from here on “mean maximum HBV pgRNA decline”) (50 mg q.d., 28 days)?
A: The value was -1.53 log10 copies/mL.

Q: What about the “HBV DNA response, subject E2003 with pre-existing HBc P25S substitution” value (50 mg q.d., HBeAg (+) patient) of the same molecule?
A: Its value is “no decrease”.

Q: What about the “HBV pgRNA response, subject E2003 with pre-existing HBc P25S substitution” value (50 mg q.d., HBeAg (+) patient) of the same molecule?
A: The value was “only slightly decreased; also recorded: only a slight decrease”.

Q: What about the “patients with HBV DNA reduced below the lower limit of quantification” value (100 mg q.d.) of the same molecule?
A: Its value is 1 (12.5%) number of patients (percentage.

Q: What about the “patients with HBV pgRNA reduced below the lower limit of quantification (~ 2 log10 copies/mL)” value (100 mg q.d.) of the same molecule?
A: The value was 1 (12.5%) number of patients (percentage.

Q: What about the “maximum mean HBcrAg decrease” value (100 mg q.d., 28 days) of the same molecule?
A: The value was -0.61 log10 kU/mL.

Q: What about the “mean maximum HBV DNA decline” value (100 mg q.d., 28 days) of the same molecule?
A: Its value is -2.50 log10 IU/mL.

Q: And the “mean maximum HBV pgRNA decline” value (100 mg q.d., 28 days)?
A: Its value is -2.35 log10 copies/mL.

Q: And the “maximum decrease of HBV DNA, patient E3010” value [1]?
A: Its value is -3.23 log10 IU/mL.

Q: What about the “maximum decrease of HBV pgRNA, patient E3010” value [1] of the same molecule?
A: The value was -3.71 log10 copies/mL.

Q: And the “maximum decrease of HBcrAg, patient E3010” value [1]?
A: The value was -1.96 log10 kU/mL.

Q: And the “maximum decrease of HBsAg, patient E3010” value [1]?
A: The value was -0.22 log10 IU/mL.

Q: And the “patients with HBV DNA reduced below the lower limit of quantification” value (200 mg q.d.)?
A: Its value is 1 (12.5%) number of patients (percentage.

Q: And the “patients with HBV pgRNA reduced below the lower limit of quantification (~ 2 log10 copies/mL)” value (200 mg q.d.)?
A: The value was 4 (50.0%) number of patients (percentage.

Q: What about the “maximum mean HBcrAg decrease” value (200 mg q.d., 28 days) of the same molecule?
A: Its value is -0.51 log10 kU/mL.

Q: And the “mean maximum HBV DNA decline” value (200 mg q.d., 28 days)?
A: Its value is -2.75 log10 IU/mL.

Q: What about the “mean maximum HBV pgRNA decline” value (200 mg q.d., 28 days) of the same molecule?
A: The value was -2.34 log10 copies/mL.

Q: And the “change of HBeAg level” value (50–200 mg q.d., 28 days)?
A: Its value is “Neither the HBsAg nor HBeAg levels decreased”.

Q: And the “change of HBsAg level” value (50–200 mg q.d., 28 days)?
A: The value was “Neither the HBsAg nor HBeAg levels decreased”.

Q: And the “changes in levels of HBsAb, HBeAb, HBcAb” value (50–200 mg q.d., 28 days)?
A: The value was “no clinically significant changes”.
